# In US20230243822A1, “MOLECULAR DISEASE PROFILE AND USE THEREOF FOR MONITORING AND TREATING RHEUMATAOID ARTHRITIS” (JANSSEN BIOTECH, INC., priority 2020, published 2023):
# How the values were obtained:
# [1] = system: 4-analyte M-DP panel (CRP, SAA, CXCL10, CXCL13); assay: Pharmacodynamic 4-analyte M-DP score by MSD U-PLEX, CORRONA CERTAIN biorepository serum; assay type: in vivo, human; conditions: U-PLEX 4-analyte; for M-DP score GMean decrease: all treated
# Description: PD M-DP scores for the 4-analyte panel were calculated based on these concentrations of CRP, SAA, CXCL10, and CXCL13.
# These samples were not previously evaluated for the M-DP panel development or reduction.
# RA patients = conditions: cited from earlier work
# 14-analyte M-DP panel = assay: Pharmacodynamic M-DP score, 14-analyte panel (SomaLogic SOMAscan), clinical studies in RA; assay type: in vivo, human
# From the text: (§1) Serum samples and data from eight interventional clinical studies with seven different active treatments for RA or placebo treatment were obtained and analyzed: sirukumab (anti-IL-6) and placebo treatments in SIRROUND-M (NCT01689532; Takeuchi T, et al. Arthritis Res Ther. 2018 Mar. 7; 20(1): 42), SIRROUND-D (NCT01604343; Takeuchi T, et al. Ann Rheum Dis. 2017 Dec.; 76(12): 2001-2008), and SIRROUND-T (NCT01606761; Aletaha D, et al. Lancet. 2017 Mar. 25; 389(10075): 1206-1217); sirukumab and adalimumab (anti-TNF-alpha) treatments in SIRROUND-H (NCT02019472; Taylor PC, et al. Ann Rheum Dis. 2018 May; 77(5): 658-666); golimumab (anti-TNF-alpha) treatment in GO-FURTHER (NCT00973479; Weinblatt ME, et al. Ann Rheum Dis. 2013 March; 72(3): 381-9); guselkumab (anti-IL-23p19), ustekinumab (anti-IL-12/IL-23p40), and placebo treatments in CNTO1275ARA2001 (NCT01645280; Cox JD, et al. […]); JNJ-40346527 (colony-stimulating factor-1 inhibitor) and placebo treatments in 40346527ARA2001 (NCT01597739; Genovese MC, et al. J Rheumatol. 2015 October; 42(10): 1752-60). Plasma samples were obtained from the RA-MAP TACERA study (Cope AP, et al. Nat Rev Rheumatol. 2018 January; 14(1): 53-60) before (baseline) and 6-months after initiation of conventional synthetic disease-modifying anti-rheumatic drugs (csDMARDs). Details of treatment dose groups, concomitant methotrexate use, and previous experience with csDMARDs and biologics are reported in Table 1. The studies were conducted in accordance with the Declaration of Helsinki. The study protocols were reviewed and approved by an independent ethics committee or institutional review board for each study center. Written informed consent was obtained from all patients before study entry. Additional study details and patient characteristics are available in the referenced publications for each study. For SIRROUND-D and SIRROUND-T studies, sets of serum samples from demographically-matched healthy controls were obtained from commercial sources (BioIVT, Westbury, N.Y.).
# (§2) Serum samples from baseline (week 0) and the time points indicated in Table 1 were provided for quantification of 1189 serum analytes using the SomaScan v3.1 platform (SomaLogic, Boulder, Colo.; www.somalogic.com), with the exception of RA-MAP TACERA, for which plasma samples were analyzed for 1301 analytes using the SomaScan v3.2 platform. For some studies, a redacted dataset reporting data for a subset of the analytes was obtained. Relative fluorescence unit (RFU) data were sequentially normalized for hybridization controls (internal standards per samples), median signal across all samples (assumes same total protein concentration across sample set), and calibration controls (common sample standards across analysis plates). Samples failed quality control standards defined by Somalogic were excluded from analyses. The normalized RFU values were log2-transformed for subsequent analyses.
# (§3) Changes in analyte expression levels were calculated for individual samples as the log2 transform of the ratio of the analyte level at the indicated time point (visit level) over the analyte level at baseline (baseline level) for a given subject, i.e., log 2(visit level/baseline level). Changes in RA disease-associated analytes per sample were summarized using a pharmacodynamic (PD) molecular disease profile (M-DP) score, defined as the median value of the log 2(visit level/baseline level) values for analytes in the defined M-DP analyte set. […] PD M-DP scores in the log 2(visit level/baseline level) scale can be transformed to percent change from baseline, using the transformation: (2^M-DP score−1)×100%.
# Statistical analyses were performed on log2-transformed data, for either normalized Relative fluorescence unit (RFU) datasets or within-subject fold/baseline datasets. Significance of differences between groups was evaluated using General Linear Models, with t-tests when comparing two groups. […]
# [2] = system: 4-analyte M-DP panel (CRP, CXCL10, CXCL13, SAA); assay: Pharmacodynamic M-DP score, 4-analyte panel CRP, CXCL10, CXCL13, SAA (SOMAscan), clinical studies in RA; assay type: in vivo, human; conditions: 4-analyte, 40346527ARA2001, oral 100 mg BID; for M-DP score mean difference ± SD, Good vs. No / M-DP score mean ± SD, DAS28-CRP response group Good / M-DP score mean ± SD, DAS28-CRP response group Moderate / M-DP score mean ± SD, DAS28-CRP response group No: response at week 12
# From the text: as §1, §2, §3
# In selecting the best minimal set of analytes that performs similarly to the full 14-analyte set, analyte sets that results in significant associations between DAS28-CRP EULAR good vs. no response with p<0.05 for each study were prioritized (Table 4). […]
# [3] = CERTAIN Biorepository RA patients
# [4] = 40346527ARA2001, score at week 4, oral 100 mg BID, response at week 12
# [5] = 40346527ARA2001, score at week 12, oral 100 mg BID, response at week 12
compound,measurement,setting,value
rituximab,M-DP score GMean decrease,[1]; 3-months,30%
same,M-DP score GMean decrease,[1]; 6-months,36%
same,"M-DP score mean ± SD, 6-month DAS28-CRP response group Good",[1]; score at month 3M,−0.44 ± 1.13 [7] log2 (fold/baseline)
same,"M-DP score mean ± SD, 6-month DAS28-CRP response group Moderate",[1]; score at month 3M,−0.71 ± 1.62 [4] log2 (fold/baseline)
same,"M-DP score mean ± SD, 6-month DAS28-CRP response group No",[1]; score at month 3M,−0.23 n.a. [1] log2 (fold/baseline)
same,"M-DP score mean ± SD, All treated",[1]; score at month 3M,−0.51 ± 1.20 [12] log2 (fold/baseline)
same,"M-DP score mean ± SD, 6-month DAS28-CRP response group Good",[1]; score at month 6M,−0.96 ± 0.79 [7]* log2 (fold/baseline)
same,"M-DP score mean ± SD, 6-month DAS28-CRP response group Moderate",[1]; score at month 6M,−0.24 ± 1.23 [4] log2 (fold/baseline)
same,"M-DP score mean ± SD, 6-month DAS28-CRP response group No",[1]; score at month 6M,−0.01 n.a. [1] log2 (fold/baseline)
same,"M-DP score mean ± SD, All treated",[1]; score at month 6M,−0.64 ± 0.95 [12] * log2 (fold/baseline)
same,"EULAR DAS28-CRP clinical response rate, good response",RA patients; [3],50%
same,"EULAR DAS28-CRP clinical response rate, moderate response",RA patients; [3],32%
same,"EULAR DAS28-CRP clinical response rate, no response",RA patients; [3],18%
"CC1(C)CC=C(c2nc(C3CC(C)(C)OC(C)(C)C3)ccc2NC(=O)c2nc(C#N)c[nH]2)CC1 [JNJ-40346527, reference compound]","M-DP score mean ± SD, All treated","14-analyte M-DP panel; 40346527ARA2001, score at week 4, oral 100 mg BID",−0.08 ± 0.27 log2 (fold/baseline)
same,"M-DP score mean difference ± SD, Good vs. No",14-analyte M-DP panel; [4],0.08 ± 0.52 log2 (fold/baseline)
same,"M-DP score mean ± SD, DAS28-CRP response group Good",14-analyte M-DP panel; [4],0.29 ± 0.42 log2 (fold/baseline)
same,"M-DP score mean ± SD, DAS28-CRP response group Moderate",14-analyte M-DP panel; [4],−0.05 ± 0.48 log2 (fold/baseline)
same,"M-DP score mean ± SD, DAS28-CRP response group No",14-analyte M-DP panel; [4],−0.09 ± 0.54 [23] log2 (fold/baseline)
same,"M-DP score mean ± SD, All treated","14-analyte M-DP panel; 40346527ARA2001, score at week 12, oral 100 mg BID",−0.13 ± 0.33 log2 (fold/baseline)
same,"M-DP score mean ± SD, DAS28-CRP response group Good",14-analyte M-DP panel; [5],−0.50 ± 0.61 log2 (fold/baseline)
same,"M-DP score mean ± SD, DAS28-CRP response group Moderate",14-analyte M-DP panel; [5],−0.07 ± 0.55 log2 (fold/baseline)
same,"M-DP score mean ± SD, DAS28-CRP response group No",14-analyte M-DP panel; [5],0.18 ± 0.50 [22] log2 (fold/baseline)
same,"GMean M-DP scores, change","14-analyte M-DP panel; week 4 or latest time point evaluated (weeks 28, 28, and 12, respectively)",not decreased
same,clinical efficacy in the underlying clinical studies,RA patients; RA patients,not clinically efficacious
same,"M-DP score mean ± SD, All treated",[2]; score at week 4,−0.03 ± 0.49 log2 (fold/baseline)
same,"M-DP score mean difference ± SD, Good vs. No",[2]; score at week 4,0.34 ± 0.52 (0.1581) log2 (fold/baseline)
same,"M-DP score mean ± SD, DAS28-CRP response group Good",[2]; score at week 4,−0.29 ± 0.42 log2 (fold/baseline)
same,"M-DP score mean ± SD, DAS28-CRP response group Moderate",[2]; score at week 4,−0.05 ± 0.48 log2 (fold/baseline)
same,"M-DP score mean ± SD, DAS28-CRP response group No",[2]; score at week 4,−0.09 ± 0.54 log2 (fold/baseline)
same,"M-DP score mean ± SD, All treated",[2]; score at week 12,−0.01 ± 0.56 log2 (fold/baseline)
same,"M-DP score mean difference ± SD, Good vs. No",[2]; score at week 12,−0.68 ± 0.52 (0.0079) log2 (fold/baseline)
same,"M-DP score mean ± SD, DAS28-CRP response group Good",[2]; score at week 12,−0.50 ± 0.61 log2 (fold/baseline)
same,"M-DP score mean ± SD, DAS28-CRP response group Moderate",[2]; score at week 12,−0.07 ± 0.55 log2 (fold/baseline)
same,"M-DP score mean ± SD, DAS28-CRP response group No",[2]; score at week 12,0.18 ± 0.50 log2 (fold/baseline)
